Measured values published in publication PMC9186412, “Rational Framework for the Design of Trp- and Arg-Rich Peptide Antibiotics Against Multidrug-Resistant Bacteria” (Frontiers in Microbiology, 2022).
Like-named read-outs stand apart in the source and are kept apart here. Where a SMILES comes first, the peptide text is derived from it. Bridges are numbered along the chain shown (N, C = ends). [ ]: non-standard residue; d: D form. The star is where a group is joined. X1 = CC[C@H](C)CCCCC(=O)*; Dab = NCC[C@H](N)C(=O)O

What was measured:
CDC AR isolates = tested on: CDC AR isolates; parameters: key: S (green), susceptible; I (blue), intermediate; R (red), resistant; details: data provided by the CDC, ref CDC, cited from earlier work
Description: Supplement Table_3.XLSX, sheet "CDC AR isolates profiles" | column: G(-) strains

E. coli = assay: microbe, parasite or virus in culture; type: cell-based, Escherichia coli
Method: (§1) Bacterial clinical isolates, used for initial screening and in previous studies ([Deslouches et al., 2013]; [Lin et al., 2018]), were anonymously provided by the clinical microbiology laboratory of the University of Pittsburgh medical Center. The panel used for secondary screening was from [CDC (2013)] (Supplementary Table 3), with resistance profiles data. Bacteria are stored in lock-secured –80°C freezer and typically retrieved by obtaining single colonies on agar plates prior for subsequent liquid broth cultures. Suspensions of test bacteria were prepared from log phase of growth by diluting overnight cultures at 1:100 with fresh cation-adjusted MHB (MHB2, Millipore Sigma, United States) and incubating for additional 3–4 h. Bacteria were spun at 3,000 × g for 10 min and the pellet resuspended in test condition media (Millipore Sigma, United States) to determine bacterial turbidity using a Den-1B densitometer (Grant Instruments, United States) at 0.5 McFarland (unit of bacterial density) corresponding to […].
(§2) To examine antibacterial activity, we used minor modifications of a standard growth inhibition assay endorsed by the Clinical and Laboratory Standards Institute (CLSI), as previously described ([Deslouches et al., 2013]). Bacteria were incubated with each of the indicated peptides in MHB2. The bacterial cells were kept in an incubator for 18 h at 37°C, which is linked to a robotic system that feeds a plate reader every hour with one of 8 × 96-well plates. This set-up allows the collection of growth kinetic data at A 570 (absorbance at 570 nm) to examine growth inhibition in real time (BioTek Instruments, United States). […] The assays are typically repeated a second time. If the MIC is different, a third experimental trial is performed to confirm the MIC. To assess bactericidal properties of the peptide, the assay was modified by using 15% fetal bovine serum (FBS, for a more physiologically relevant test condition) mixed with 25% MHB2 and 60% PBS. Bacterial cells (colony forming unit/mL or CFU/mL) were enumerated after incubating treated bacteria for 3 h and plating serially diluted samples on broth agar medium at 37°C overnight. Minimum bactericidal concentration (MBC) was determined as the peptide concentration at which complete bacterial killing was observed. […] Data were analyzed using GraphPad Prism software.

P. aeruginosa = assay: microbe, parasite or virus in culture; type: cell-based, Pseudomonas aeruginosa
Method: as §1, §2

Enterobacter spp = assay: microbe, parasite or virus in culture; type: cell-based, Enterobacter spp (aerogenes, cloacae)
Method: as §1, §2

A. baumannii = assay: microbe, parasite or virus in culture; type: cell-based, Acinetobacter baumannii
Method: as §1, §2

E. Faecium = assay: microbe, parasite or virus in culture; type: cell-based, Enterococcus Facium
Method: as §1, §2

K. pneumoniae = assay: microbe, parasite or virus in culture; type: cell-based, Klebsiella pneumoniae
Method: as §1, §2

CC[C@H](C)CCCCC(=O)N[C@@H](CCN)C(=O)N[C@H](C(=O)N[C@@H](CCN)C(=O)N[C@H]1CCNC(=O)[C@H]([C@@H](C)O)NC(=O)[C@H](CCN)NC(=O)[C@H](CCN)NC(=O)[C@H](CC(C)C)NC(=O)[C@@H](CC(C)C)NC(=O)[C@H](CCN)NC1=O)[C@@H](C)O [Colistin, reference compound] (X1-[Dab]T[Dab][Dab][Dab][dL]L[Dab][Dab]T; lactam 4-C (inferred); N-terminus assumed)
R: Antibiotic susceptibility profile (CDC AR isolates; Enterobacter cloacae E546, CDC AR isolate) | Antibiotic susceptibility profile (CDC AR isolates; Klebsiella pneumoniae KP548, CDC AR isolate) | Antibiotic susceptibility profile (CDC AR isolates; Klebsiella pneumoniae KP550, CDC AR isolate) | Antibiotic susceptibility profile (CDC AR isolates; Klebsiella pneumoniae KP552, CDC AR isolate) | Antibiotic susceptibility profile (CDC AR isolates; Pseudomonas aeruginosa PA239, CDC AR isolate)
1 µM: MIC (E. coli; strain Eco541, CDC clinical strain, confirmed by a second or third experimental trial) | MIC (E. coli; strain Eco549, CDC clinical strain, confirmed by a second or third experimental trial) | MIC (P. aeruginosa; strain PA231, CDC clinical strain, confirmed by a second or third experimental trial)
8 µM: MIC (E. coli; strain Eco543, CDC clinical strain, confirmed by a second or third experimental trial) | MIC (K. pneumoniae; colistin-resistant CDC isolate KP125, MHB2)
0.5 µM: MIC (E. coli; strain Eco25922, MHB2, 18 h, 37°C) | MIC (E. coli; strain YDC107, UPMC, MHB2, 18 h, 37°C) | MIC (P. aeruginosa; strain PA01, MHB2, 18 h, 37°C) | MIC (P. aeruginosa; strain PA129-5, UPMC, MHB2, 18 h, 37°C) | MIC (P. aeruginosa; strain PA216, CDC clinical strain, confirmed by a second or third experimental trial) | MIC (P. aeruginosa; strain PA230, CDC clinical strain, confirmed by a second or third experimental trial) | MIC (A. baumannii; strain AB273, CDC clinical strain, confirmed by a second or third experimental trial) | MIC (A. baumannii; strain AB275 (second line, r9), CDC clinical strain, confirmed by a second or third experimental trial) | MIC (A. baumannii; strain AB-A2, UPMC clinical strain, MHB2, 18 h, 37°C, A570, confirmed by 2nd or 3rd trial) | MIC (A. baumannii; strain AB-F8, UPMC, MHB2, 18 h, 37°C)
16 µM: MIC (K. pneumoniae; colistin-resistant CDC isolate KP507, MHB2) | MIC (K. pneumoniae; colistin-resistant CDC isolate KP1010, MHB2)
2 µM: MIC (Enterobacter spp; strain EA62 (aerogenes), CDC clinical strain, confirmed by a second or third experimental trial) | MIC (Enterobacter spp; strain EC545 (cloacae), CDC clinical strain, confirmed by a second or third experimental trial)
S: Antibiotic susceptibility profile (CDC AR isolates; Acinetobacter baumannii AB273, CDC AR isolate) | Antibiotic susceptibility profile (CDC AR isolates; Acinetobacter baumannii AB274, CDC AR isolate) | Antibiotic susceptibility profile (CDC AR isolates; Acinetobacter baumannii AB275, CDC AR isolate) | Antibiotic susceptibility profile (CDC AR isolates; Acinetobacter baumannii AB276, CDC AR isolate) | Antibiotic susceptibility profile (CDC AR isolates; Enterobacter cloacae E62, CDC AR isolate) | Antibiotic susceptibility profile (CDC AR isolates; Pseudomonas aeruginosa PA229, CDC AR isolate) | Antibiotic susceptibility profile (CDC AR isolates; Pseudomonas aeruginosa PA230, CDC AR isolate) | Antibiotic susceptibility profile (CDC AR isolates; Pseudomonas aeruginosa PA231, CDC AR isolate) | Antibiotic susceptibility profile (CDC AR isolates; Pseudomonas aeruginosa PA232, CDC AR isolate)
I: Antibiotic susceptibility profile (CDC AR isolates; Klebsiella pneumoniae KP542, CDC AR isolate)
0.25 µM: MIC (E. coli; strain Eco546, CDC clinical strain, confirmed by a second or third experimental trial) | MIC (E. coli; strain YDC337, UPMC, MHB2, 18 h, 37°C) | MIC (E. coli; strain YDC748, UPMC, MHB2, 18 h, 37°C) | MIC (P. aeruginosa; strain PA14, MHB2, 18 h, 37°C) | MIC (P. aeruginosa; strain PA97-5, UPMC, MHB2, 18 h, 37°C) | MIC (Enterobacter spp; strain EA518 (aerogenes), UPMC, MHB2, 18 h, 37°C) | MIC (Enterobacter spp; strain EA547 (aerogenes), CDC clinical strain, confirmed by a second or third experimental trial) | MIC (Enterobacter spp; strain EA596 (aerogenes), UPMC, MHB2, 18 h, 37°C) | MIC (Enterobacter spp; strain EC470 (cloacae), UPMC, MHB2, 18 h, 37°C) | MIC (Enterobacter spp; strain EC560 (cloacae), UPMC, MHB2, 18 h, 37°C) | MIC (A. baumannii; strain AB274, CDC clinical strain, confirmed by a second or third experimental trial) | MIC (A. baumannii; strain AB275 (first line, r8), CDC clinical strain, confirmed by a second or third experimental trial) | MIC (A. baumannii; strain AB-A3, UPMC, MHB2, 18 h, 37°C) | MIC (A. baumannii; strain AB-F9, UPMC, MHB2, 18 h, 37°C) | MIC (K. pneumoniae; strain KP548, CDC clinical strain, confirmed by a second or third experimental trial) | MIC (K. pneumoniae; strain KP550, CDC clinical strain, confirmed by a second or third experimental trial) | MIC (K. pneumoniae; strain KP552, CDC clinical strain, confirmed by a second or third experimental trial) | MIC (K. pneumoniae; strain KPB3, UPMC, MHB2, 18 h, 37°C) | MIC (K. pneumoniae; strain KPC3, UPMC, MHB2, 18 h, 37°C)
>16 µM: MIC (P. aeruginosa; strain PA229, CDC clinical strain, confirmed by a second or third experimental trial) | MIC (E. Faecium; strain EF500, CDC clinical strain, confirmed by a second or third experimental trial) | MIC (E. Faecium; strain EF671, CDC clinical strain, confirmed by a second or third experimental trial) | MIC (E. Faecium; strain EF672, CDC clinical strain, confirmed by a second or third experimental trial) | MIC (E. Faecium; strain EF673, CDC clinical strain, confirmed by a second or third experimental trial) | MIC (E. Faecium; strain EF23614, UPMC, MHB2, 18 h, 37°C) | MIC (E. Faecium; strain EF26215, UPMC, MHB2, 18 h, 37°C) | MIC (E. Faecium; strain EF26692, UPMC, MHB2, 18 h, 37°C) | MIC (K. pneumoniae; colistin-resistant CDC isolate KP87, MHB2) | MIC (K. pneumoniae; colistin-resistant CDC isolate KP1041, MHB2) | MIC (K. pneumoniae; colistin-resistant CDC isolate KP1045, MHB2) | MIC (K. pneumoniae; strain KP542, CDC clinical strain, confirmed by a second or third experimental trial) | MIC (K. pneumoniae; strain KPA5 (colistin-resistant), UPMC, MHB2, 18 h, 37°C)
4 µM: MIC (Enterobacter spp; strain EC544 (cloacae), CDC clinical strain, confirmed by a second or third experimental trial) | MIC (K. pneumoniae; colistin-resistant CDC isolate KP46, MHB2)
